Where two headings read alike, the source gives them in different places.
Legend:
[1] = system: primary peritoneal mouse macrophages (PMM); conditions: PMM IC50 / L. infantum IC50
in vitro [2] = conditions: Swiss, mouse
in vitro [3] = conditions: human, microsomes, pH 7.4, HLM CLint, human liver microsomes
in vitro [4] = conditions: mouse, microsomes, pH 7.4, MLM CLint, mouse liver microsomes
physchem = conditions: HPLC, Ascentis Express RP Amide column, pH 7.4, eLogD
in vitro [5] = conditions: human
in vitro [6] = conditions: PAMPA
[7] = system: Leishmania infantum MHOM/MA(BE)/67/ITMAP263 intracellular amastigotes; assay: microbe, parasite or virus in culture; conditions: Macrophage, in Mus musculus
[8] = system: Trypanosoma cruzi, Tulahuen CL2, beta-galactosidase strain; assay: microbe, parasite or virus in culture; conditions: MRC5, read-out: T. cruzi Tulahuen C4 (LacZ) IC50
[9] = system: primary peritoneal mouse macrophages (PMM); assay: cells; conditions: Macrophage, read-out: PMM IC50
in vitro [10] = conditions: human, HFF-1 cells
in vitro [11] = conditions: human, HepG2 cells
in vitro [12] = conditions: PAMPA; remark: listed apart in the source
[13] = read-out: L. Inf. pIC50, from L. infantum intracellular amastigote IC50 (converted)
[14] = read-out: L. infantum MHOM/MA(BE)/67/ITMAP263 intracellular amastigotes IC50
[15] = read-out: L. infantum MHOM/MA(BE)/67/ITMAP263 intracellular amastigotes IC50, intracellular amastigotes

Structure (SMILES) | SI (vs PMM) [1] | IC50 (in vitro [2]) [µM] | microsomal CLint at 0.5 μM (in vitro [3]) [µL/min/mg] | microsomal CLint at 0.5 μM (in vitro [4]) [µL/min/mg] | chromatographic logD (physchem) | CC50 at 3 days (in vitro [5]) [µM] | Papp (in vitro [6]) [×10⁻⁶ cm/s] | IC50 [7, 13] [µM] | IC50 [7, 14] [µM] | IC50 [8] [µM] | IC50 [9] [µM] | chromatographic logD (physchem; experimental) | CC50 (in vitro [10]) [µM] | CC50 (in vitro [11]) [µM] | Papp (in vitro [12]) [×10⁻⁶ cm/s] | IC50 [7, 15] [µM]
CCN(Cc1ccccc1)S(=O)(=O)c1cc(Cl)ccc1OC [DNDI0003364251] | 12 | > 64 | 304 | 1260 | 4.3 | 53.2 | 3.74 | 5.5 | 5.52 | 9.1 |  |  |  |  |  | 
CCN(Cc1ccccc1)S(=O)(=O)c1ccccc1OC(F)(F)F [DNDI0003364252] | 8 | > 64 | 1180 | 2340 | 4.5 | > 64 | 1.18 | 8.51 | 8.47 | 22.4 |  |  |  |  |  | 
CCN(Cc1ccccc1)S(=O)(=O)c1ccc(NC(C)=O)cc1 [DNDI0003364473] | 1 | > 64 | 205 | 398 | 3.5 | > 64 | 13.6 | > 64 | > 64 | 33.1 |  |  |  |  |  | 
COc1ccc(Cl)cc1S(=O)(=O)N(Cc1ccccc1)OC [DNDI0003364476] | 3 | > 64 | 265 | 1890 | 4.3 | > 64 | 5.91 | 24.5 | 24.7 | 7.86 |  |  |  |  |  | 
CCN(Cc1ccccc1)S(=O)(=O)c1cc(F)ccc1N1CCCC1 [DNDI0003364614] | 4 | 50.8 | 1470 | 3000 | 4.9 | > 64 | 0.34 | 12.9 | 12.9 | 7.33 |  |  |  |  |  | 
O=S(=O)(NCc1ccccc1)c1cc(F)ccc1F [DNDI0003365406] | 1 | > 64 | 75 | 260 | 3.2 | > 64 | 30.4 | 49 | 49.4 | > 64 |  |  |  |  |  | 
COc1ccc(OC)c(S(=O)(=O)NCc2ccccc2)c1 [DNDI0003365408] | 1 | > 64 | 126 | 1250 | 2.8 | > 64 | 16.8 | > 64 | > 64 | > 64 |  |  |  |  |  | 
COc1ccc(OC)c(S(=O)(=O)N(Cc2ccc(F)cc2)Cc2ncccn2)c1 [DNDI0003370419] |  |  | 115 | 844 |  | > 64 |  | 13.8 |  | 38.8 | > 64 | 3.4 | 19.1 | > 64 | 25.1 | 13.8
COc1ccc(OC)c(S(=O)(=O)N(Cc2ccc(F)cc2)Cc2oc(C)nc2C)c1 [DNDI0003370420] |  |  | 376 | 2280 |  | > 64 |  | 2.34 |  | 24.9 | > 64 | 3.8 | 1.24 | > 64 | 46.4 | 2.34
COc1ccc(C#N)cc1S(=O)(=O)N(Cc1ccc(F)cc1)Cc1oc(C)nc1C [DNDI0003370421] |  |  | 392 | 721 |  | 49.1 |  | 7.94 |  | 26.1 | > 64 | 3.7 | 1.91 | > 64 | 14.8 | 7.89
COc1ccc(OC)c(S(=O)(=O)N2CCC(c3ccccc3)CC2)c1 [DNDI0003370422] |  |  | 1610 | 664 |  | > 64 |  | > 64 |  | 16.9 | > 64 | 4.2 | 4.56 | 63.9 | 6.45 | > 64
CNc1ncccc1S(=O)(=O)N(Cc1ccc(F)cc1)Cc1ccc(F)cc1 [DNDI0003371162] |  |  | 401 | 984 |  | > 64 |  | 3.55 |  | 14.5 | > 64 | 4.5 | > 64 | 16.9 | 1.61 | 3.54
Nc1ncccc1S(=O)(=O)N(Cc1ccc(F)cc1)Cc1ccc(F)cc1 [DNDI0003371163] |  |  | 164 | 447 |  | > 64 |  | > 64 |  | 42 | > 64 | 4.2 | 52.2 | > 64 | 2.18 | > 64
COc1ccc(S(C)(=O)=O)cc1S(=O)(=O)N(Cc1ccc(F)cc1)Cc1ccc(F)cc1 [DNDI0003371164] |  |  | 296 |  |  | > 64 |  | 1.29 |  | 22 | > 64 |  | 24.3 | 41.7 | 2.57 | 1.28
O=c1[nH]cccc1S(=O)(=O)N(Cc1ccc(F)cc1)Cc1ccc(F)cc1 [DNDI0003371165] |  |  | 44 | 218 |  | > 64 |  | > 64 |  | 42.3 | > 64 | 3.8 | 23.2 | > 64 | 23.6 | > 64
[2H]C([2H])([2H])Oc1ncccc1S(=O)(=O)N(Cc1ccc(F)cc1)Cc1ccc(F)cc1 [DNDI0003371166] |  |  | 14 | 123 |  | > 64 |  | 32.4 |  | 20.8 | > 64 | 3.5 | 41.8 | 18.9 | 4.95 | 32.1
O=S(=O)(c1cccnc1OC(F)F)N(Cc1ccc(F)cc1)Cc1ccc(F)cc1 [DNDI0003371167] |  |  | 751 | 3070 |  | > 64 |  | 9.33 |  | 31.2 | > 64 | 4.8 | > 64 | > 64 | 0.98 | 9.4
COc1ccc(OC)c(S(=O)(=O)N(Cc2ccc(F)cc2)c2ccc(F)cc2)c1 [DNDI0003371170] |  |  | 417 | 703 |  | > 64 |  | 11.2 |  | 15.1 | > 64 |  | 30.7 | 23.3 | 1.83 | 11.3
COc1ccc(C#N)cc1S(=O)(=O)N(Cc1ccc(F)cc1)Cc1ccc(C#N)cc1 [DNDI0003371171] |  |  |  |  |  | > 64 |  | 33.1 |  | 30.4 | > 64 |  | > 64 | > 64 |  | 33.2

— paper PMC8126888 (RSC Medicinal Chemistry, 2020)
